Test results as given in publication PMC9927415, “Tyrosine Kinase Inhibitors Display Potent Activity against Cryptosporidium parvum” (Microbiology Spectrum, 2022).

Assays:
Assay in all cases: KINOMEscan competitive binding, whole panel
[1] = target: T1, panel of 203 kinases (Homo sapiens, UniProt P15056); settings: 10 µM, n=1; kinase BRAF; read-out: Percent inhibition BRAF
T1 construct: purchased DiscoverX (KINOMEscan)
Method in brief: (§1)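 Kinases expressed as T7 bacteriophage fusions; test compound competes with an immobilized ATP-site probe ligand. Kinase still bound to the solid support was quantified and expressed as percentage inhibition.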

[2] = target: T2, panel of 203 kinases (Homo sapiens, UniProt P53671); settings: 10 µM, n=1; kinase LIMK2; read-out: Percent inhibition LIMK2
T2 construct: purchased DiscoverX (KINOMEscan)
Method in brief: as §1

[3] = target: T3, panel of 203 kinases (Homo sapiens, UniProt P54646); settings: 10 µM, n=1; kinase AMPK-alpha2; read-out: Percent inhibition AMPK-alpha2
T3 construct: purchased DiscoverX (KINOMEscan)
Method in brief: as §1

[4] = target: T4, panel of 203 kinases (Homo sapiens, UniProt P54760); settings: 10 µM, n=1; kinase EPHB4; read-out: Percent inhibition EPHB4
T4 construct: purchased DiscoverX (KINOMEscan)
T4 sequence (P54760 16-987): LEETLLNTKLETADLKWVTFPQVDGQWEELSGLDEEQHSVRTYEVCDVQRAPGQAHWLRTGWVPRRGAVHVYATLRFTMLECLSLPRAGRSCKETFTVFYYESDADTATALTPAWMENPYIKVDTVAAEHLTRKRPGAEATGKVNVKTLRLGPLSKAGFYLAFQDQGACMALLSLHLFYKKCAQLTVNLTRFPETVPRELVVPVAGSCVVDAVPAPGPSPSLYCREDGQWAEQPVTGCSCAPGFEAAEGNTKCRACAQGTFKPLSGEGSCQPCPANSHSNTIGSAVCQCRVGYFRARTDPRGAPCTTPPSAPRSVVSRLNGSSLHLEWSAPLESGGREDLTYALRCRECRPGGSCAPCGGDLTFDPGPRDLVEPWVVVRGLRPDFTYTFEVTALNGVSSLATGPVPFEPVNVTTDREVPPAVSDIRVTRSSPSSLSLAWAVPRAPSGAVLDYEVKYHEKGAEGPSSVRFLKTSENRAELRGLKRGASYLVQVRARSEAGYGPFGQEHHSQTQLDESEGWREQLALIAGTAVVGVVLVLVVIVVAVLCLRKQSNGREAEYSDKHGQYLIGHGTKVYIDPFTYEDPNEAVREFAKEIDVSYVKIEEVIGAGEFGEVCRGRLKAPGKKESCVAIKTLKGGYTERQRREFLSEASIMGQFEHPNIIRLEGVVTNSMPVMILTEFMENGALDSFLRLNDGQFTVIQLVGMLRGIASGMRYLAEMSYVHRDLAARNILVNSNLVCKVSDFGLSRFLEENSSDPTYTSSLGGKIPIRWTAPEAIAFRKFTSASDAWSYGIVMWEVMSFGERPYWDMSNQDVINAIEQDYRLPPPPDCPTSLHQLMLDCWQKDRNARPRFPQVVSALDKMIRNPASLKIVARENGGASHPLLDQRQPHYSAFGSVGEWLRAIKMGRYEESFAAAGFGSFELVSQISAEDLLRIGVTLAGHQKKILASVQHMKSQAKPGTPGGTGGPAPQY
Method in brief: as §1

[5] = target: T5, panel of 203 kinases (Homo sapiens, UniProt P78368); settings: 10 µM, n=1; kinase CSNK1G2; read-out: Percent inhibition CSNK1G2
T5 construct: purchased DiscoverX (KINOMEscan)
Method in brief: as §1

[6] = target: T6, panel of 203 kinases (Homo sapiens, UniProt Q99683); settings: 10 µM, n=1; kinase MAP3K5; read-out: Percent inhibition MAP3K5
T6 construct: purchased DiscoverX (KINOMEscan)
T6 sequence (Q99683 1-1374): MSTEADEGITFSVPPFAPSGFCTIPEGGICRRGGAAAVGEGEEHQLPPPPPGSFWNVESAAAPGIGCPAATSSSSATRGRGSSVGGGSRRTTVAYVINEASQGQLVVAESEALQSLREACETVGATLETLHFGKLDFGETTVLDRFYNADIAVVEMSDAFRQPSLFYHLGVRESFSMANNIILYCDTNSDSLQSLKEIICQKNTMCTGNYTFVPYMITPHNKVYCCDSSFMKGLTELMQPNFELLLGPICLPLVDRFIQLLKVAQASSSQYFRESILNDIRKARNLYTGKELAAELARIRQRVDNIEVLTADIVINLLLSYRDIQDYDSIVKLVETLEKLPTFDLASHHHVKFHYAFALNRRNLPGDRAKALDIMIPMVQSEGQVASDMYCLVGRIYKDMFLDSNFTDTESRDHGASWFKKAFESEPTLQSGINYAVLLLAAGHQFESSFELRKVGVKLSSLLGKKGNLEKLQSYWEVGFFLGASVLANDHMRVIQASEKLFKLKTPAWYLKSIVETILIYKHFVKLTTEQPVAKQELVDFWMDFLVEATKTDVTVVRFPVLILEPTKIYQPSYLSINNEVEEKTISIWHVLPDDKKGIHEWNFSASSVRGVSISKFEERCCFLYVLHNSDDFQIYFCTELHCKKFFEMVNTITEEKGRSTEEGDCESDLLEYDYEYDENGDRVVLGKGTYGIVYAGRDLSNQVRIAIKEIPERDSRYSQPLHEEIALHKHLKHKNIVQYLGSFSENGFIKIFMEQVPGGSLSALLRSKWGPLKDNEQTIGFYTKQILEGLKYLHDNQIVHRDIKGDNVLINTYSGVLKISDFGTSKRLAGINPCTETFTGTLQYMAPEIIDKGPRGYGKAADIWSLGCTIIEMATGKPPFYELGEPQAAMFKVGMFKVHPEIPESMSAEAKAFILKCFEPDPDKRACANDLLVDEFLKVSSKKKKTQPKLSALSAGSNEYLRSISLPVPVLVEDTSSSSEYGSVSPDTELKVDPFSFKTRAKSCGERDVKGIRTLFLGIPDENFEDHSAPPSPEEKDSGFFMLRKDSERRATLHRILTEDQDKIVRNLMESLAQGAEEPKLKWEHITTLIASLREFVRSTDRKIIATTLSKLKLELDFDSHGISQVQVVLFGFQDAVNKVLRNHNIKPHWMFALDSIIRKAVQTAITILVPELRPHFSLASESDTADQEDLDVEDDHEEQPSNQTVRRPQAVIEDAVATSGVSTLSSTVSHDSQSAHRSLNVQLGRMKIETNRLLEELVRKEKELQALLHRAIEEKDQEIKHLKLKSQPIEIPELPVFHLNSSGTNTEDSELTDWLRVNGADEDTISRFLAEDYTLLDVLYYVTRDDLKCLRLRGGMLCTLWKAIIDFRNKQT
Method in brief: as §1

[7] = target: T7, panel of 203 kinases (Homo sapiens, UniProt Q9HBH9); settings: 10 µM, n=1; kinase MKNK2; read-out: Percent inhibition MKNK2
T7 construct: purchased DiscoverX (KINOMEscan)
Method in brief: as §1

T5 sequence (P78368 whole entry): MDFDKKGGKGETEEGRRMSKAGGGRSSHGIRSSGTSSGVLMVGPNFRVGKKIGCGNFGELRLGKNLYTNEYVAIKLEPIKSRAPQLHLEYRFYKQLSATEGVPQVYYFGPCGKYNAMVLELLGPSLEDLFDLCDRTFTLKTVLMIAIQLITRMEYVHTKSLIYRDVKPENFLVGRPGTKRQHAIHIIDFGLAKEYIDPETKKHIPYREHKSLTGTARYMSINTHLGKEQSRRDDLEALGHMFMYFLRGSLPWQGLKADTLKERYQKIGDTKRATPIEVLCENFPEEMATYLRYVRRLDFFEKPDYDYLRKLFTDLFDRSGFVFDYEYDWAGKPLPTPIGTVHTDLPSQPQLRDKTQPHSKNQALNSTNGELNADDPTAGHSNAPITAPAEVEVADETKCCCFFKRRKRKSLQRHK
T1 sequence (P15056 whole entry): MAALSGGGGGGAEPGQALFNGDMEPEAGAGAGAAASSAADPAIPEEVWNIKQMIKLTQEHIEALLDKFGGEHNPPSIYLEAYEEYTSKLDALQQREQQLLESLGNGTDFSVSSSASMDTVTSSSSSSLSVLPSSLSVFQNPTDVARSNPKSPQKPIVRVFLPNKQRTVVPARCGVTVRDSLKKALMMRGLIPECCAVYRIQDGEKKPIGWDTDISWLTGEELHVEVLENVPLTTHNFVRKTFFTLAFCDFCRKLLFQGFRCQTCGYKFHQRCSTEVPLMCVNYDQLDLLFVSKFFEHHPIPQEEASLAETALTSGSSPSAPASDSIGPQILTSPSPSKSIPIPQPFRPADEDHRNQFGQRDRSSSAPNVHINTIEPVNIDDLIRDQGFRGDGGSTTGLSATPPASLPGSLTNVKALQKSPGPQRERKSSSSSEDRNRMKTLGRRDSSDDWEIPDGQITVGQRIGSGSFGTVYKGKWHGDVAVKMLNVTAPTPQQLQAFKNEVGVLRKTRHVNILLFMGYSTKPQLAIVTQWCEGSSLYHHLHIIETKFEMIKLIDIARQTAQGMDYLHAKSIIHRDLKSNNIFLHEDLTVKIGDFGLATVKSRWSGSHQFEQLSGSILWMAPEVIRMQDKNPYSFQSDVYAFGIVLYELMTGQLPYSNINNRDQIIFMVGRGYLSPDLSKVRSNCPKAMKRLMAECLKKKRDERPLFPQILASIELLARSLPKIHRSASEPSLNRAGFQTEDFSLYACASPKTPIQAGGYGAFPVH
T2 sequence (P53671 whole entry): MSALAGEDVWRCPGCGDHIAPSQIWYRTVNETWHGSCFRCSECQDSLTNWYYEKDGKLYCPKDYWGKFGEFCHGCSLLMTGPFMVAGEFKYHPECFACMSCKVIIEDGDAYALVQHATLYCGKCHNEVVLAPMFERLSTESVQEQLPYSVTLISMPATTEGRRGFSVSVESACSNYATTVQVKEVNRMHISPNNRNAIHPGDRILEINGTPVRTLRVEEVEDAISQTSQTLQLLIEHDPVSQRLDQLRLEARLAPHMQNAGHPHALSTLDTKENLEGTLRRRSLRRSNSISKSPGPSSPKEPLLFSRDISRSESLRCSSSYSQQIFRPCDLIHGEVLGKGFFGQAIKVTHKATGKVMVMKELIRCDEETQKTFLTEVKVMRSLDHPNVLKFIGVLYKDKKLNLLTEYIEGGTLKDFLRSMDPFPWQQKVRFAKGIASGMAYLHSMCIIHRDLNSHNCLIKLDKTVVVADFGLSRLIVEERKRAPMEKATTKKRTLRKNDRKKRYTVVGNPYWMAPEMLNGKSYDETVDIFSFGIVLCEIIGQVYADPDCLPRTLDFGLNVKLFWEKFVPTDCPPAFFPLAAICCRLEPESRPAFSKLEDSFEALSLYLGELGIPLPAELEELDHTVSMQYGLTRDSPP
T3 sequence (P54646 whole entry): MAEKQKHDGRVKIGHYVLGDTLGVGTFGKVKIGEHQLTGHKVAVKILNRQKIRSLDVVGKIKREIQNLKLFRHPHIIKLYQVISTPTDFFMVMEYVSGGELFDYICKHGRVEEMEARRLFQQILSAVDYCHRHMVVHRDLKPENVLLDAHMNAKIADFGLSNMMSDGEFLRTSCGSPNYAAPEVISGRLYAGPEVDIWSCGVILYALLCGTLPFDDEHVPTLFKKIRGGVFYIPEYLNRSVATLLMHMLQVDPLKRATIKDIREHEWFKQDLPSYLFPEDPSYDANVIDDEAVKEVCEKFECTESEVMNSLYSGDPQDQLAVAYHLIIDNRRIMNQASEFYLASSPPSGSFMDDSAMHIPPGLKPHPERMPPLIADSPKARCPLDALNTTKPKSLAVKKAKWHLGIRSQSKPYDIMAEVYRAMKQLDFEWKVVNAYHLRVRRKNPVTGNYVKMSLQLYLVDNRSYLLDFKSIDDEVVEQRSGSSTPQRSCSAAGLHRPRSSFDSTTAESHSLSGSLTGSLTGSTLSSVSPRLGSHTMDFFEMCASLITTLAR
T7 sequence (Q9HBH9 whole entry): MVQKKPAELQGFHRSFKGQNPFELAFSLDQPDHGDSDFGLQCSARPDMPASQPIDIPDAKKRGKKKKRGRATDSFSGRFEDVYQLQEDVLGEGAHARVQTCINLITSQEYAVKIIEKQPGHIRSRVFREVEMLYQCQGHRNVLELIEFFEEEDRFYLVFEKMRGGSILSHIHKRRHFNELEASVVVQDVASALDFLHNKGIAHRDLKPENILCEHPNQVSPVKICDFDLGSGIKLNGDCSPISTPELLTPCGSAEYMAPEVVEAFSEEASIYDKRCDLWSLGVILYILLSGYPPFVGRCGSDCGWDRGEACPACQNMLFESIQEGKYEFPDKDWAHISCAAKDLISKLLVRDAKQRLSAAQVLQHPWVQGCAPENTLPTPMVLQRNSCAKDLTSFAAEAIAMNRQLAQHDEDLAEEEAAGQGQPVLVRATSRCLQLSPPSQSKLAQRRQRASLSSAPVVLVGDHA

Structure (SMILES)	inhibition at 10 µM [1] [%]	inhibition at 10 µM [2] [%]	inhibition at 10 µM [3] [%]	inhibition at 10 µM [4] [%]	inhibition at 10 µM [5] [%]	inhibition at 10 µM [6] [%]	inhibition at 10 µM [7] [%]
CN1CCN(c2ccc(Nc3nccc(-c4cnn5ncccc45)n3)cc2C#N)CC1 [Compound 1]	0	100	81.8	0	88.3	0	97
COc1ccc(Nc2nccc(-c3cnn4ncccc34)n2)cc1 [Compound 2]	99.6	88	0	0	93.6	0	99.4
Cc1ccc(O)cc1Nc1ccnc(Nc2cccc(C(N)=O)c2)n1 [Compound 3]	0	96.6	0	100	93.3	0	83.9
Cc1ccc(O)cc1N(C)c1ccnc(Nc2cccc(S(N)(=O)=O)c2)n1 [Compound 4]	0	96	0	100	75.8	0	99.3
Fc1cccc(COc2ccc(Nc3ncnc4c3CN(CCN3CCOCC3)CC4)cc2Cl)c1 [Compound 6]	0	0	0	0	0	0	0
COc1cc(Nc2nccc(-c3sc(N)nc3-c3cccc(NC(=O)c4c(F)cccc4F)c3)n2)cc(OC)c1OC [Compound 7]	100	100	100	91.9	0	0	100
C[C@@H](Oc1cc(-c2cnc3ccccn23)sc1C(N)=O)c1ccccc1Cl [Compound 8]	0	0	0	0	0	0	0
c1ccc(COc2cccc(-c3ccnc4[nH]ccc34)c2)cc1 [Compound 9]	0	0	0	0	0	0	0
Clc1ccc(Nc2ncc(-c3ccccc3)s2)cc1 [Compound 10]	0	0	0	0	0	0	65.7
Nc1ncc2c(-c3ccncc3)c[nH]c2n1 [Compound 11]	0	0	0	0	89.7	0	97.3
